The source of these data is US7358042B2, “Triosephosphate isomerase directed diagnostics and therapeutics for multidrug resistant neoplastic disease” (priority 2003, dated 2008).

pIC50: −log10 of the molar value.

Data set [1] has as its system hematological tumor cells. The experiment in a line: Triosephosphate isomerase vaccination of mice injected with hematological tumor cells. Type of data set: in vivo. Particulars: mice vaccinated prior to injection of the tumor cells versus not vaccinated.
The subject of data set [2] is antigen-positive E3 cell line. The note with it: read-out: IC50 (cytotoxicities); cited from earlier work.
The test system of another data set is E3 target cells. Particulars: cited from earlier work.

For “triosephosphate isomerase: purified full length murine triosephosphate isomerase protein used as vaccine antigen, may be administered with an adjuvant”, in data set [1], the tumor size result is reported as “smaller”.
As to `O=c1[nH]c(=O)n([C@H]2C[C@H](O)[C@@H](CO)O2)cc1F` [FUDR, 5-fluoro-2′-deoxyuridine], in data set [2], the pIC50 (usually the IC50 on a negative log10 scale, so that one unit is a factor of ten) is 9.40.
With `CC(=O)[C@]1(O)Cc2c(O)c3c(c(O)c2[C@@H](O[C@H]2C[C@H](N)[C@H](O)[C@H](C)O2)C1)C(=O)c1ccccc1C3=O` [Ida, Idarubicin], the pIC50 with E3 target cells is 6.92.
